Results taken from PubChem BioAssay (NCI).
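The compound was tested at five concentrations on cells cultured in 96-well plates, with a 48-hour exposure period. Definition used: TGI = concentration required for complete inhibition of growth.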 Where a SMILES comes first, the peptide text is derived from it. The star is where a group is joined. Boc = CC(C)(C)OC(=O)*; OBn = c1ccc(CO*)cc1

test system: OVCAR-3 ovarian; assay: NCI-60 cell line screen, 48 h

Point of comparison: `COc1ccc2nc3c([N+](=O)[O-])ccc4c3c(c2c1)N=CN4CCCN(C)C`, TGI 20.2 µM. Against it:
- CCOC(=O)C(SCCO)C(C(=O)OCC)n1cnc2c(N)ncnc21 (configuration not stated) — within 1.5-fold, 25.4 µM
- CC(C)C(NC(=O)C(Cc1ccccc1)NC(=O)OC(C)(C)C)C(=O)NCC(=O)OCc1ccccc1 (stereo not drawn) (Boc-Phe-Val-Gly-OBn; configuration not given here) — within 1.5-fold, 27.9 µM

test system: EKVX NSCLC; assay: NCI-60 cell line screen, 48 h

Point of comparison: `COc1cc(/C=C(\C#N)c2nc3ccccc3o2)ccc1O`, TGI 49.6 µM. Against it:
- CCOC(=O)C1=CN/C(=C(/C)C(=O)OC)SC1C(=O)OCC (configuration not stated) — higher, > 100 µM
- Cc1ccc2c(c1)C(=O)/C(=N/Nc1ccc(Cl)cc1)CCO2 — higher, > 100 µM
- COc1cc(C2SCC(=O)N2c2ccccc2Cl)cc(OC)c1OC (configuration not stated) — higher, > 100 µM
- CN(C)c1ccc(/C=N\NC(=O)c2ccccc2Nc2ccccc2C(=O)N/N=C/c2ccc(N(C)C)cc2)cc1 — higher, > 100 µM
- C=C1C(=O)OC2/C=C(\CO)C3OC3C3OC3(C)CC(OC(=O)/C(=C/C)CO)C12 (configuration not stated) — higher, > 100 µM
- COc1ccc2cc(CNCCCCCCCCCCCCNCc3ccc4cc(OC)ccc4c3)ccc2c1 — within 1.5-fold, 37.6 µM
- COC(=O)c1c(O)ccc2c1c1c(n2Cc2ccccc2)C(=O)c2ccccc2C1=O — within 1.5-fold, 36.6 µM
- Cc1csc2nc3c(cnn3C)c(=S)n12 — higher, > 100 µM
- Cc1cc(C)nc(NS(=O)(=O)c2ccc(NNc3c4ccccc4nc4c(C(=O)Nc5ccc(S(=O)(=O)Nc6ncccn6)cc5)cccc34)cc2)n1 — within 1.5-fold, 54.3 µM
- COCC(N=CN1CCCc2ccccc2[C@@H]1CCCCl)C(C)(C)C (some centres not stated) — 1.8-fold higher, 88.9 µM
- CNc1c2cccc(C)c2nc2c(C(=O)NCCN(C)C)cccc12 — 37-fold lower, 1.33 µM
- O=C1CC(NC(=O)C(F)(F)F)c2c1csc2Br (configuration not stated) — within 1.5-fold, 38.2 µM
- CCC(Sc1cc(Cl)c(C)cc1S(=O)(=O)Nc1nc(N)nc(N(C)C)n1)C(=O)O (configuration not stated) — not separable, > 10 µM
- O=C(N/N=C/c1ccc2c(c1)OCO2)Nc1ccccc1Cl — higher, > 60.5 µM
- C[C@]12C[C@H](c3ccccc3)Nc3ccccc3N1C(c1ccccc1)=NO2 — 1.9-fold higher, 92.6 µM
- O=c1c(C=Nc2ccccc2Cl)c(O)n(-c2ccccc2)c(=O)n1-c1ccccc1 — higher, > 100 µM
- CCOC(=O)NNC(=O)C1CSC(c2ccccc2)N1C(C)=O (configuration not stated) — higher, > 100 µM
- Cc1ccc2nc(CN3CCCC(O)C3)cc(=O)n2c1 (configuration not stated) — higher, > 100 µM
- CCOC(=O)C(SCCO)C(C(=O)OCC)n1cnc2c(N)ncnc21 (configuration not stated) — within 1.5-fold, 38.1 µM
- COc1ccc2nc3c([N+](=O)[O-])ccc4c3c(c2c1)N=CN4CCCN(C)C — 3.1-fold lower, 16.2 µM
- CC(C)C(NC(=O)C(Cc1ccccc1)NC(=O)OC(C)(C)C)C(=O)NCC(=O)OCc1ccccc1 (stereo not drawn) (Boc-Phe-Val-Gly-OBn; configuration not given here) — within 1.5-fold, 37.9 µM

test system: SF-268 CNS; assay: NCI-60 cell line screen, 48 h

Point of comparison: `CNc1c2cccc(C)c2nc2c(C(=O)NCCN(C)C)cccc12`, TGI 0.318 µM. Against it:
- CCOC(=O)C1=CN/C(=C(/C)C(=O)OC)SC1C(=O)OCC (configuration not stated) — higher, > 100 µM
- Cc1ccc2c(c1)C(=O)/C(=N/Nc1ccc(Cl)cc1)CCO2 — higher, > 100 µM
- COc1cc(C2SCC(=O)N2c2ccccc2Cl)cc(OC)c1OC (configuration not stated) — higher, > 100 µM
- CN(C)c1ccc(/C=N\NC(=O)c2ccccc2Nc2ccccc2C(=O)N/N=C/c2ccc(N(C)C)cc2)cc1 — higher, > 100 µM
- C=C1C(=O)OC2/C=C(\CO)C3OC3C3OC3(C)CC(OC(=O)/C(=C/C)CO)C12 (configuration not stated) — higher, > 100 µM
- COc1cc(/C=C(\C#N)c2nc3ccccc3o2)ccc1O — 160-fold higher, 50.7 µM
- COc1ccc2cc(CNCCCCCCCCCCCCNCc3ccc4cc(OC)ccc4c3)ccc2c1 — 86-fold higher, 27.2 µM
- COC(=O)c1c(O)ccc2c1c1c(n2Cc2ccccc2)C(=O)c2ccccc2C1=O — 100-fold higher, 33 µM
- Cc1csc2nc3c(cnn3C)c(=S)n12 — higher, > 100 µM
- Cc1cc(C)nc(NS(=O)(=O)c2ccc(NNc3c4ccccc4nc4c(C(=O)Nc5ccc(S(=O)(=O)Nc6ncccn6)cc5)cccc34)cc2)n1 — higher, > 100 µM
- COCC(N=CN1CCCc2ccccc2[C@@H]1CCCCl)C(C)(C)C (some centres not stated) — higher, > 100 µM
- O=C1CC(NC(=O)C(F)(F)F)c2c1csc2Br (configuration not stated) — 200-fold higher, 62.3 µM
- CCC(Sc1cc(Cl)c(C)cc1S(=O)(=O)Nc1nc(N)nc(N(C)C)n1)C(=O)O (configuration not stated) — higher, > 10 µM
- O=C(N/N=C/c1ccc2c(c1)OCO2)Nc1ccccc1Cl — higher, > 82.5 µM
- C[C@]12C[C@H](c3ccccc3)Nc3ccccc3N1C(c1ccccc1)=NO2 — higher, > 100 µM
- O=c1c(C=Nc2ccccc2Cl)c(O)n(-c2ccccc2)c(=O)n1-c1ccccc1 — higher, > 100 µM
- CCOC(=O)NNC(=O)C1CSC(c2ccccc2)N1C(C)=O (configuration not stated) — higher, > 100 µM
- Cc1ccc2nc(CN3CCCC(O)C3)cc(=O)n2c1 (configuration not stated) — higher, > 100 µM
- CCOC(=O)C(SCCO)C(C(=O)OCC)n1cnc2c(N)ncnc21 (configuration not stated) — 110-fold higher, 35.9 µM
- COc1ccc2nc3c([N+](=O)[O-])ccc4c3c(c2c1)N=CN4CCCN(C)C — 56-fold higher, 17.8 µM
- CC(C)C(NC(=O)C(Cc1ccccc1)NC(=O)OC(C)(C)C)C(=O)NCC(=O)OCc1ccccc1 (stereo not drawn) (Boc-Phe-Val-Gly-OBn; configuration not given here) — 89-fold higher, 28.2 µM

test system: HCC-2998 colon; assay: NCI-60 cell line screen, 48 h

`CCOC(=O)C1=CN/C(=C(/C)C(=O)OC)SC1C(=O)OCC` (configuration not stated) and `C=C1C(=O)OC2/C=C(\CO)C3OC3C3OC3(C)CC(OC(=O)/C(=C/C)CO)C12` (configuration not stated) cannot be ordered by TGI: over 100 µM for the first, over 100 µM for the second.

`Cc1ccc2c(c1)C(=O)/C(=N/Nc1ccc(Cl)cc1)CCO2` and `COc1cc(C2SCC(=O)N2c2ccccc2Cl)cc(OC)c1OC` (configuration not stated) cannot be ordered by TGI: over 100 µM for the first, over 100 µM for the second.

`CN(C)c1ccc(/C=N\NC(=O)c2ccccc2Nc2ccccc2C(=O)N/N=C/c2ccc(N(C)C)cc2)cc1` showed a TGI of over 100 µM.
